Assay results as given in US9273033B2, “Substituted pyridone derivatives as PDE10 inhibitors” (Merck Sharp & Dohme Corp., priority 2012, dated 2016).

Target: human PDE10A2 (Homo sapiens (Human), UniProt Q9Y233)
Assay: PDE10 fluorescence polarization (IMAP FP) inhibition assay
Assay type: biochemical
Details: human PDE10A2, FAM-labeled cAMP substrate, read-out: PDE10A Ki
In short: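 Cytoplasmic lysate of AD293 cells transiently expressing human PDE10A2 (diluted to ~20% substrate conversion) incubated 30 min at room temperature with 50 nM FAM-cAMP in Tris pH 7.2 buffer with MgCl2, DTT. Activity read by IMAP fluorescence polarization. 0% inhibition set with 1% DMSO, 100% with reference PDE10 inhibitor.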

Sequence of human PDE10A2 (Q9Y233 267-1055): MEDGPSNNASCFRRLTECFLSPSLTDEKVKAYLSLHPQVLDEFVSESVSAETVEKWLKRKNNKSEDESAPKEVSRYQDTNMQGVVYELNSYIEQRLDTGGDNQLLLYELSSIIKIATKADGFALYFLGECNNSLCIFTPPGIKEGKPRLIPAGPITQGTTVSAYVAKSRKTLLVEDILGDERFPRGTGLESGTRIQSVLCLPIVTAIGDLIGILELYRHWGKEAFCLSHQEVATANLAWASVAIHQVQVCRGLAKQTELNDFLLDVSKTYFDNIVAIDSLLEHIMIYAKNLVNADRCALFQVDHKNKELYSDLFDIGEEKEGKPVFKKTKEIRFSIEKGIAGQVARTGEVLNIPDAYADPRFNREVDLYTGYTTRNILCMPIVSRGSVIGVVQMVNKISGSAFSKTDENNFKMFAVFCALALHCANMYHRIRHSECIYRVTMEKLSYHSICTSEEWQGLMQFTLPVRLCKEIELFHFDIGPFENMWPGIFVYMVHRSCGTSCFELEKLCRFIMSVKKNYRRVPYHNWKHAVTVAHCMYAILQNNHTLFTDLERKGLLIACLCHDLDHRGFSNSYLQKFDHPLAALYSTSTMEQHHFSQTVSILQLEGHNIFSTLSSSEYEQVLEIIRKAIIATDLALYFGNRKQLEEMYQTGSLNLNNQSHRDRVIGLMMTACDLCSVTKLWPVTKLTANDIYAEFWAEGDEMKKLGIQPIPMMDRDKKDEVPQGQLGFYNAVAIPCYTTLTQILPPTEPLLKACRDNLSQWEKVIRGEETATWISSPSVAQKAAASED

| Ki [nM] | SMILES |
| --- | --- |
| 0.728 | COc1ccc([C@H]2C[C@@H]2COc2nc(C)ncc2-c2cnn(C)c(=O)c2Cl)nc1 [Example 137, 4-chloro-5-(4-(((1S,2S)-2-(5-methoxypyridin-2-yl)cyclopropyl)methoxy)-2-methylpyrimidin-5-yl)-2-methylpyridazin-3(2H)-one] |
| 2.16 | COc1ccc([C@H]2C[C@@H]2COc2nc(C)ncc2-c2cc(=O)n(C)nc2OC)nc1 [Example 138, 6-methoxy-5-(4-(((1S,2S)-2-(5-methoxypyridin-2-yl)cyclopropyl)methoxy)-2-methylpyrimidin-5-yl)-2-methylpyridazin-3(2H)-one] |
| 21.2 | COc1ccc([C@H]2C[C@@H]2COc2nc(C)ncc2-c2cc(=O)n(C)nc2O)nc1 [Example 139, 6-hydroxy-5-(4-(((1S,2S)-2-(5-methoxypyridin-2-yl)cyclopropyl)methoxy)-2-methylpyrimidin-5-yl)-2-methylpyridazin-3(2H)-one] |
| 0.228 | Cc1ncc(-c2cc(=O)n(C)cn2)c(OC[C@H]2C[C@@H]2c2ccc3ccccc3n2)n1 [Example 140, 3-methyl-6-(2-methyl-4-(((1S,2S)-2-(quinolin-2-yl)cyclopropyl)methoxy)pyrimidin-5-yl)pyrimidin-4(3H)-one] |
| 5.46 | Cc1ccc([C@H]2C[C@@H]2COc2nc(C)ncc2-c2cc(=O)n(C)cn2)nc1 [Example 141, 3-methyl-6-(2-methyl-4-(((1S,2S)-2-(5-methylpyridin-2-yl)cyclopropyl)methoxy)pyrimidin-5-yl)pyrimidin-4(3H)-one] |
| 6.04 | COc1ccc([C@H]2C[C@@H]2COc2nc(C)ncc2-c2cc(=O)n(C)cn2)nc1 [Example 142, 6-(4-(((1S,2S)-2-(5-methoxypyridin-2-yl)cyclopropyl)methoxy)-2-methylpyrimidin-5-yl)-3-methylpyrimidin-4(3H)-one] |
